Assay results taken from patent US8871758B2, “Tetrasubstituted oxathiazine derivatives, method for producing them, their use as medicine and drug containing said derivatives and the use thereof” (Sanofi, priority 2011, dated 2014).

Biological target: T1, human 11β-HSD1 (Homo sapiens, UniProt P28845)
T1 construct: host or cells: microsome fraction
Assay: Enzymatic 11beta-HSD1 test (SPA-based detection)
Assay type: biochemical
Conditions: human 11β-HSD1 microsome fraction, [1,2-3H]-cortisone substrate, NADPH, 37° C. 1 hour, read-out: IC50 (nM), Biological activity in nanomolar
Protocol: Enzymatic 11beta-HSD1 Test:
First of all, 20 μl of the human 11β-HSD1 microsome fraction (0.2 μg of protein), prepared in 50 mM HEPES, 0.1% BSA (w/v), were applied to a plate with 384 wells. The test compounds (0.09 μl) were applied to the assay plate in 100% DMSO. The reaction was started by addition of 20 μl of [1,2-^3H]-cortisone (0.1 μCi/[…]) in assay buffer comprising 25 mM HEPES, 100 mM KCl, 5 mM NaCl, 2 mM MgCl2 and 0.25 mM NADPH. The plate was agitated at 37° C. for 1 hour. At the same time, a stop solution comprising 20 mg/ml SPA-PVT beads, 1.6 mg/ml monoclonal cortisol antibody and 0.01 mM SSR110887 (inhibitor from the Biovitrium patent) in 50 mM HEPES, 1 M NaCl and 1 M KCl was stirred at room temperature. To stop the reaction, 25 μl of the stop solution were added to each well. The plate was agitated gently at room temperature for 1 further hour and then centrifuged at 500 gav for 1 min, in order that the SPA beads could settle out. […] The comparative compound was glycyrrhetinic acid.
Protein and radioactive substrate were dispensed with a Biomek FX unit (Beckman Coulter) for handling liquids. The test compounds were added with a Cybi-Well equipped with a 90 n1 pin tool (CyBio).
Lit.: Solly S, Mundt S S, Zokian H J, Juy-Fang Ding G, Hermanowski-Vosatka A, Strulovici B and Zheng W. High-throughput screening of 11β-Hydroxysteroid dehydrogenase type 1 in scintillation proximity format.

T1 sequence (P28845 whole entry): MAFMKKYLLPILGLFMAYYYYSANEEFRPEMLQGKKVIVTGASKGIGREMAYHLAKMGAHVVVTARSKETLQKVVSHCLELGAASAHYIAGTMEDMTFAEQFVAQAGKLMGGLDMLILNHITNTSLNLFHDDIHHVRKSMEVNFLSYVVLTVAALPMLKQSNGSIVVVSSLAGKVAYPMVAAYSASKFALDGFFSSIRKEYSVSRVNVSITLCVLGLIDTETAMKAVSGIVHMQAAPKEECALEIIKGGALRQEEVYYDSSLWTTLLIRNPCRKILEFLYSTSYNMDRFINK

| SMILES | IC50 [nM] |
| --- | --- |
| CC1(C)OC(N[C@@H](CS(N)(=O)=O)c2ccc(F)cc2)=NS(=O)(=O)C1(C)C (single isomer, unassigned) [Example 14] | 10 |
| COCC1(C)OC(NC2CCCCC2)=NS(=O)(=O)C12CC2 (stereo not shown) [Example 4, Cyclohexyl-(8-methoxymethyl-8-methyl-4,4-dioxo-7-oxa-4lambda6-thia-5-aza-spiro[2.5]oct-5-en-6-yl)-amine] | 462 |
| CC1(C)OC(N[C@@H](CCO)c2ccccc2)=NS(=O)(=O)C12CC2 [Example 5, (S)-3-(8,8-Dimethyl-4,4-dioxo-7-oxa-4lambda6-thia-5-aza-spiro[2.5]oct-5-en-6-ylamino)-3-phenyl-propan-1-ol] | 37 |
| CC1(COCc2ccccc2)OC(NC2CCCCC2)=NS(=O)(=O)C12CC2 (stereo not shown) [Example 6, (8-Benzyloxymethyl-8-methyl-4,4-dioxo-7-oxa-4lambda6-thia-5-aza-spiro[2.5]oct-5-en-6-yl)-cyclohexyl-amine] | 73 |
| CC1(CO)OC(NC2CCCCC2)=NS(=O)(=O)C12CC2 (stereo not shown) [Example 7, (6-Cyclohexylamino-8-methyl-4,4-dioxo-7-oxa-4lambda6-thia-5-aza-spiro[2.5]oct-5-en-8-yl)-methanol] | 786 |
| CC1(C)OC(NC23CCC(F)(CC2)CC3)=NS(=O)(=O)C12CC2 [Example 8, (8,8-Dimethyl-4,4-dioxo-7-oxa-4lambda6-thia-5-aza-spiro[2.5]oct-5-en-6-yl)-(4-fluoro-bicyclo[2.2.2]oct-1-yl)-amine] | 22 |
| CC1(C)OC(NC23CCC(F)(CC2)CC3)=NS(=O)(=O)C1(C)C [Example 9, (4-Fluoro-bicyclo[2.2.2]oct-1-yl)-(5,5,6,6-tetramethyl-4,4-dioxo-5,6-dihydro-4H-4lambda6-[1,4,3]oxathiazin-2-yl)-amine] | 4 |
| CC1(C(F)(F)F)OC(NC2CCCCC2)=NS(=O)(=O)C12CC2 (stereo not shown) [Example 13, Cyclohexyl-(8-methyl-4,4-dioxo-8-trifluoromethyl-7-oxa-4lambda6-thia-5-aza-spiro[2.5]oct-5-en-6-yl)-amine] | 19 |
| CC1(C)OC(NC23CCC(CC2)CC3)=NS(=O)(=O)C1(C)C [Example 15, Bicyclo[2.2.2]oct-1-yl-(5,5,6,6-tetramethyl-4,4-dioxo-5,6-dihydro-4H-4lambda6-[1,4,3]oxathiazin-2-yl)-amine] | 4 |
| CC(C)(O)C[C@H](NC1=NS(=O)(=O)C(C)(C)C(C)(C)O1)c1cccnc1 [Example 16, (S)-2-Methyl-4-pyridin-3-yl-4-(5,5,6,6-tetramethyl-4,4-dioxo-5,6-dihydro-4H-4lambda6-[1,4,3]oxathiazin-2-ylamino)-butan-2-ol] | 586 |
| CC1(C)OC(N[C@H]2CCC[C@H](O)C2)=NS(=O)(=O)C1(C)C [Example 18, (1S,3S)-3-(5,5,6,6-Tetramethyl-4,4-dioxo-5,6-dihydro-4H-4lambda6-[1,4,3]oxathiazin-2-ylamino)-cyclohexanol] | 560 |
| C[C@H](NC1=NS(=O)(=O)C(C)(C)C(C)(C)O1)c1ccccc1F [Example 21, [(S)-1-(2-Fluoro-phenyl)-ethyl]-(5,5,6,6-tetramethyl-4,4-dioxo-5,6-dihydro-4H-4lambda6-[1,4,3]oxathiazin-2-yl)-amine] | 5 |
| CC1(C)OC(N[C@@H]2CCC[C@@H](O)C2)=NS(=O)(=O)C1(C)C [Example 25, (1R,3R)-3-(5,5,6,6-Tetramethyl-4,4-dioxo-5,6-dihydro-4H-4lambda6-[1,4,3]oxathiazin-2-ylamino)-cyclohexanol] | 289 |
